Patent US20250114338A1, “TETRAHYDRO-PYRIDO[3,4-b]INDOLE ESTROGEN RECEPTOR MODULATORS AND USES THEREOF” (Genentech, Inc., priority 2014, published 2025)

Test system: ER-alpha MCF7
Experiment: ER-alpha MCF7 HCS EC50; stated as measured by in vitro cell proliferation assays of Examples 902 and 903
Format: cell-based
Conditions: Homo sapiens, MCF7, MCF7 cells; Table 2
Description: The CellTiter-Glo® Luminescent Cell Viability Assay is a homogeneous method to determine the number of viable cells in culture based on quantitation of the ATP present, which signals the presence of metabolically active cells. The CellTiter-Glo® Assay is designed for use with multiwell plate formats, making it ideal for automated high-throughput screening (HTS), cell proliferation and cytotoxicity assays. The homogeneous assay procedure involves adding a single reagent (CellTiter-Glo® Reagent) directly to cells cultured in serum-supplemented medium. Cell washing, removal of medium or multiple pipetting steps are not required. The Cell Titer-Glo® Luminescent Cell Viability Assay, including reagents and protocol are commercially available (Promega Corp., Madison, WI, Technical Bulletin TB288).
The assay assesses the ability of compounds to enter cells and inhibit cell proliferation. The assay principle is based on the determination of the number of viable cells present by quantitating the ATP present in a homogenous assay where addition of the Cell Titer-Glo® reagent results in cell lysis and generation of a luminescent signal through the luciferase reaction. The luminescent signal is proportional to the amount of ATP present.
Cell Culture Medium: RPMI or DMEM high glucose, 10% Fetal Bovine Serum, 2 mM L-Glutamine, P/S. Incubate O/N (overnight) at 37° C., 5% CO2.
Day 2—Add Drug to Cells, Compound Dilution, DMSO Plates (serial 1:2 for 9 points). Add 20 μl of compound at 10 mM in the 2nd column of 96 well plate. […] Add 147 μl of Media into all wells. Transfer 3 μl of DMSO+ compound from each well in the DMSO Plate to each corresponding well on Media Plate using Rapidplate® (Caliper, a Perkin-Elmer Co.). For 2 drug combination studies, transfer one drug 1.5 μl of DMSO+ compound from each well in the DMSO Plate to each corresponding well on Media Plate using Rapidplate. Then, transfer another drug 1.5 μl to the medium plate.
Drug Addition to Cells, Cell Plate (1:10 dilution): Add 6 μl of media+ compound directly to cells (54 μl of media on the cells already). Incubate 3 days at 37° C., 5% CO2 in an incubator that will not be opened often.
Day 5—Develop Plates, Thaw Cell Titer Glo Buffer at room temperature: Remove Cell Plates from 37° C. and equilibrate to room temperature for about 30 minutes. Add Cell Titer-Glo® Buffer to Cell Titer-Glo® Substrate (bottle to bottle). Add 30 μl Cell Titer-Glo® Reagent (Promega cat. #G7572) to each well of cells. Place on plate shaker for about 30 minutes. Read luminescence on Analyst HT Plate Reader (half second per well).
Cell viability assays and combination assays: Cells were seeded at 1000-2000 cells/well in 384-well plates for 16 h. On day two, nine serial 1:2 compound dilutions were made in DMSO in a 96 well plate. The compounds were further diluted into growth media using a Rapidplate® robot (Zymark Corp., Hopkinton, MA). The diluted compounds were then added to quadruplicate wells in 384-well cell plates and incubated at 37° C. and 5% CO2. After 4 days, relative numbers of viable cells were measured by luminescence using Cell Titer-Glo® (Promega) according to the manufacturer's instructions and read on a Wallac Multilabel Reader® (PerkinElmer, Foster City). EC50 values were calculated using Prism® 4.0 software (GraphPad, San Diego).
5 ul of each individual compound concentration and each control compound was transferred to the cell plate. Fulvestrant was added to control wells at a final concentration of 100 nM). DMSO was added to negative control wells (0.2% v/v).

Row | EC50 [nM] | Compound
1 | 0.096 | C[C@@H]1Cc2c([nH]c3ccccc23)[C@@H](c2c(F)cc(NC3CN(CCCF)C3)cc2F)N1CC(C)(C)F [Example 145, N-(3,5-difluoro-4-((1R,3R)-2-(2-fluoro-2-methylpropyl)-3-methyl-2,3,4,9-tetrahydro-1H-pyrido[3,4-b]indol-1-yl)phenyl)-1-(3-fluoropropyl)azetidin-3-amine]
2 | 10 | C[C@@H]1Cc2c([nH]c3ccccc23)[C@@H](c2c(F)cc(OCCN3CC(CF)C3)cc2F)N1CC1CC(F)(F)C1 [Example 146, (1R,3R)-2-[(3,3-difluorocyclobutyl)methyl]-1-[2,6-difluoro-4-[2-[3-(fluoromethyl)azetidin-1-yl]ethoxy]phenyl]-3-methyl-1,3,4,9-tetrahydropyrido[3,4-b]indole]
3 | 0.698 | C[C@@H]1Cc2c([nH]c3ccccc23)[C@@H](c2c(F)cc(OCCN3CC(CF)C3)cc2F)N1CC(C)(C)C [Example 147, (1R,3R)-1-[2,6-difluoro-4-[2-[3-(fluoromethyl)azetidin-1-yl]ethoxy]phenyl]-2-(2,2-dimethylpropyl)-3-methyl-1,3,4,9-tetrahydropyrido[3,4-b]indole]
4 | 1.47 | C[C@@H]1Cc2c([nH]c3ccccc23)[C@@H](c2c(F)cc(OCCN3CC(CF)C3)cc2F)N1C(=O)C1CCC1 [Example 148, cyclobutyl-[(1R,3R)-1-[2,6-difluoro-4-[2-[3-(fluoromethyl)azetidin-1-yl]ethoxy]phenyl]-3-methyl-1,3,4,9-tetrahydropyrido[3,4-b]indol-2-yl]methanone]
5 | 2.16 | C[C@@H]1Cc2c([nH]c3ccccc23)[C@@H](c2c(F)cc(OCCN3CC(CF)C3)cc2F)N1C(=O)C1CCCC1 [Example 149, cyclopentyl-[(1R,3R)-1-[2,6-difluoro-4-[2-[3-(fluoromethyl)azetidin-1-yl]ethoxy]phenyl]-3-methyl-1,3,4,9-tetrahydropyrido[3,4-b]indol-2-yl]methanone]
6 | 0.483 | C[C@H]1CCN(CCOc2cc(F)c([C@@H]3c4[nH]c5ccccc5c4C[C@@H](C)N3CC(C)(C)F)c(F)c2)C1 [Example 150, (1R,3R)-1-[2,6-difluoro-4-[2-[(3S)-3-methylpyrrolidin-1-yl]ethoxy]phenyl]-2-(2-fluoro-2-methyl-propyl)-3-methyl-1,3,4,9-tetrahydropyrido[3,4-b]indole]
7 | 0.156 | C[C@H](COc1cc(F)c([C@@H]2c3[nH]c4ccccc4c3C[C@@H](C)N2CC(C)(C)F)c(F)c1)N1CCCC1 [Example 151, (1R,3R)-1-[2,6-difluoro-4-[(2R)-2-pyrrolidin-1-ylpropoxy]phenyl]-2-(2-fluoro-2-methyl-propyl)-3-methyl-1,3,4,9-tetrahydropyrido[3,4-b]indole]
8 | 0.362 | CCCN1CC(COc2cc(F)c([C@@H]3c4[nH]c5ccccc5c4C[C@@H](C)N3CC(C)(C)F)c(F)c2)C1 [Example 152, (1R,3R)-1-[2,6-difluoro-4-[(1-propylazetidin-3-yl)methoxy]phenyl]-2-(2-fluoro-2-methyl-propyl)-3-methyl-1,3,4,9-tetrahydropyrido[3,4-b]indole]
9 | 0.221 | C[C@@H]1Cc2c([nH]c3ccccc23)[C@@H](c2c(F)cc(OCCN3CC(CF)C3)cc2F)N1CC1(F)CCC1 [Example 153, (1R,3R)-1-[2,6-difluoro-4-[2-[3-(fluoromethyl)azetidin-1-yl]ethoxy]phenyl]-2-[(1-fluorocyclobutyl)methyl]-3-methyl-1,3,4,9-tetrahydropyrido[3,4-b]indole]
10 | 0.0333 | C[C@@H]1Cc2c([nH]c3ccccc23)[C@@H](c2c(F)cc(OCCN3CC(CF)C3)cc2F)N1C[C@](C)(F)CO [Example 154, (S)-3-((1R,3R)-1-(2,6-difluoro-4-(2-(3-(fluoromethyl)azetidin-1-yl)ethoxy)phenyl)-3-methyl-3,4-dihydro-1H-pyrido[3,4-b]indol-2(9H)-yl)-2-fluoro-2-methylpropan-1-ol]
11 | 0.0799 | C[C@@H]1Cc2c([nH]c3ccccc23)[C@@H](c2c(F)cc(OCCN3CC(CF)C3)cc2F)N1C[C@@](C)(F)CO [Example 155, (2R)-3-[(1R,3R)-1-[2,6-difluoro-4-[2-[3-(fluoromethyl)azetidin-1-yl]ethoxy]phenyl]-3-methyl-1,3,4,9-tetrahydropyrido[3,4-b]indol-2-yl]-2-fluoro-2-methyl-propan-1-ol]
12 | 0.335 | C[C@@H]1Cc2c([nH]c3ccccc23)[C@@H](c2ccc(OCCN3CC(CF)C3)cc2)N1CC(C)(C)F [Example 156, (1R,3R)-1-[4-[2-[3-(fluoromethyl)azetidin-1-yl]ethoxy]phenyl]-2-(2-fluoro-2-methyl-propyl)-3-methyl-1,3,4,9-tetrahydropyrido[3,4-b]indole]
13 | 5 | C[C@@H]1Cc2c([nH]c3ccccc23)[C@@H](c2c(F)cc(OCCN3CC(CF)C3)cc2F)N1C(=O)CC1CC1 [Example 157, 2-cyclopropyl-1-[(1R,3R)-1-[2,6-difluoro-4-[2-[3-(fluoromethyl)azetidin-1-yl]ethoxy]phenyl]-3-methyl-1,3,4,9-tetrahydropyrido[3,4-b]indol-2-yl]ethanone]
14 | 10 | C[C@@H]1Cc2c([nH]c3ccccc23)[C@@H](c2c(F)cc(OCCN3CC(CF)C3)cc2F)N1C(=O)CC1CCC1 [Example 158, 2-cyclobutyl-1-[(1R,3R)-1-[2,6-difluoro-4-[2-[3-(fluoromethyl)azetidin-1-yl]ethoxy]phenyl]-3-methyl-1,3,4,9-tetrahydropyrido[3,4-b]indol-2-yl]ethanone]
15 | 0.285 | C[C@@H]1Cc2c([nH]c3ccccc23)[C@@H](c2c(F)cc(OCCN3CC(C)(CF)C3)cc2F)N1CC(C)(C)F [Example 160, (1R,3R)-1-[2,6-difluoro-4-[2-[3-(fluoromethyl)-3-methyl-azetidin-1-yl]ethoxy]phenyl]-2-(2-fluoro-2-methyl-propyl)-3-methyl-1,3,4,9-tetrahydropyrido[3,4-b]indole]
16 | 0.0413 | C[C@@H]1Cc2c([nH]c3ccccc23)[C@@H](c2c(F)cc(OC3CN(C)C3)cc2F)N1CC(C)(C)F [Example 161, (1R,3R)-1-[2,6-difluoro-4-(1-methylazetidin-3-yl)oxy-phenyl]-2-(2-fluoro-2-methyl-propyl)-3-methyl-1,3,4,9-tetrahydropyrido[3,4-b]indole]
17 | 0.0528 | CCN1CC(Oc2cc(F)c([C@@H]3c4[nH]c5ccccc5c4C[C@@H](C)N3CC(C)(C)F)c(F)c2)C1 [Example 162, (1R,3R)-1-[4-(1-ethylazetidin-3-yl)oxy-2,6-difluoro-phenyl]-2-(2-fluoro-2-methyl-propyl)-3-methyl-1,3,4,9-tetrahydropyrido[3,4-b]indole]
18 | 0.457 | CCCCCN1CC(Oc2cc(F)c([C@@H]3c4[nH]c5ccccc5c4C[C@@H](C)N3CC(C)(C)F)c(F)c2)C1 [Example 163, (1R,3R)-1-[2,6-difluoro-4-(1-pentylazetidin-3-yl)oxy-phenyl]-2-(2-fluoro-2-methyl-propyl)-3-methyl-1,3,4,9-tetrahydropyrido[3,4-b]indole]

Same assay, conditions: Homo sapiens; MCF7 cells; Table 2

Row | EC50 [nM] | Compound
19 | 0.147 | C[C@@H]1Cc2c([nH]c3ccccc23)[C@@H](c2c(F)cc(OCCN3CC(CF)C3)cc2F)N1C(=O)C(C)(F)F [Example 159, 1-[(1R,3R)-1-[2,6-difluoro-4-[2-[3-(fluoromethyl)azetidin-1-yl]ethoxy]phenyl]-3-methyl-1,3,4,9-tetrahydropyrido[3,4-b]indol-2-yl]-2,2-difluoro-propan-1-one]
